Consider eight compounds from ChEMBL document CHEMBL3045684, “Compatibility of traditional and novel acaricides with bumblebees (Bombus terrestris): a first laboratory assessment of toxicity and sublethal effects” (Pest Manag Sci, 2010).

Active and inactive are the calls of the source. No cut-off for these calls is given here.

The subject of test [1] is Bombus terrestris. The experiment in a line: Toxicity against worker Bombus terrestris (bumblebee) assessed as mortality at 500 mg a.i./l, po administered through sugar water for 11 weeks measured everyday for 3 days followed by once a week for 11 weeks. The test is classed as functional.
Test [2] concerns Bombus terrestris. The experiment in a line: Toxicity against worker Bombus terrestris (bumblebee) assessed as mortality at 500 mg a.i./l, po administered through pollen for 11 weeks measured everyday for 3 days followed by once a week for 11 weeks. Type of test: functional, organism-based.
Test [3] concerns Bombus terrestris. The test is described as follows: Contact toxicity against worker Bombus terrestris (bumblebee) assessed as mortality at 500 mg a.i./l applied on the dorsal thorax for 11 weeks measured everyday for 3 days followed by once a week for 11 weeks. Type of test: functional.
For test [4], the system named is Bombus terrestris. The test is described as follows: Contact toxicity against worker Bombus terrestris (bumblebee) assessed as reduction in reproduction at 500 mg a.i./l applied on the dorsal thorax for 11 weeks measured once a week for 11 weeks relative to control. The test is classed as functional, organism-based.
In test [5] the test system is Bombus terrestris. The test is described as follows: Toxicity against worker Bombus terrestris (bumblebee) assessed as reduction in reproduction at 500 mg a.i./l, po administered through pollen for 11 weeks measured once a week for 11 weeks. Type of test: functional. More on the design: scale not given: the % may be the effect or the level left.
Test [6] relates to Bombus terrestris. The test is described as follows: Toxicity against worker Bombus terrestris (bumblebee) assessed as reduction in reproduction at 500 mg a.i./l, po administered through sugar water for 11 weeks measured once a week for 11 weeks relative to control. The test is classed as functional, organism-based.
Test [7] concerns Bombus terrestris. The experiment in a line: Contact toxicity against worker Bombus terrestris (bumblebee) assessed as mortality at 96 mg a.i./l applied on the dorsal thorax for 11 weeks measured everyday for 3 days followed by once a week for 11 weeks. The test is classed as functional.
Test [8] has as its system Bombus terrestris. The test is described as follows: Toxicity against worker Bombus terrestris (bumblebee) assessed as mortality at 96 mg a.i./l, po administered through sugar water measured up to 1 week. The test is classed as functional, organism-based.
Test [9] relates to Bombus terrestris. The test is described as follows: Toxicity against worker Bombus terrestris (bumblebee) assessed as mortality at 96 mg a.i./l, po administered through sugar water for 11 weeks measured everyday for 3 days followed by once a week for 11 weeks. The test is classed as functional.
The subject of test [10] is Bombus terrestris. The experiment in a line: Toxicity against po dosed worker Bombus terrestris (bumblebee) administered through sugar water for 11 weeks measured everyday for 3 days followed by once a week for 11 weeks. The test is classed as functional.
Test [11] deals with Bombus terrestris. The experiment in a line: Contact toxicity against Bombus terrestris (bumblebee) assessed per bee. The test is classed as functional.
Test [12] deals with Apis mellifera. The experiment in a line: Contact toxicity against Apis mellifera (honey bee) assessed per bee after 48 hr. The test is classed as functional.
Test [13] concerns Apis mellifera. The test is described as follows: Contact toxicity against Apis mellifera (honey bee) assessed per bee. The test is classed as functional.
Test [14] has as its system Bombus terrestris. The experiment in a line: Toxicity against worker Bombus terrestris (bumblebee) assessed as reduction in reproduction at 30 mg a.i./l, po administered through sugar water for 11 weeks measured once a week for 11 weeks relative to control. The test is classed as functional, organism-based.
For test [15], the system named is Bombus terrestris. The experiment in a line: Contact toxicity against worker Bombus terrestris (bumblebee) assessed as reduction in reproduction at 96 mg a.i./l applied on the dorsal thorax for 11 weeks measured once a week for 11 weeks relative to control. Type of test: functional, organism-based.
In test [16] the test system is Bombus terrestris. The test is described as follows: Toxicity against worker Bombus terrestris (bumblebee) assessed as mortality at 96 mg a.i./l, po administered through pollen for 11 weeks measured everyday for 3 days followed by once a week for 11 weeks. Type of test: functional, organism-based.
Test [17] deals with Bombus terrestris. The test is described as follows: Toxicity against worker Bombus terrestris (bumblebee) assessed as reduction in reproduction at 96 mg a.i./l, po administered through sugar water for 11 weeks measured once a week for 11 weeks relative to control. The test is classed as functional, organism-based.
Test [18] deals with Bombus terrestris. The test is described as follows: Toxicity against worker Bombus terrestris (bumblebee) assessed as mortality at 150 mg a.i./l, po administered through sugar water for 11 weeks measured everyday for 3 days followed by once a week for 11 weeks. The test is classed as functional.
Test [19] concerns Bombus terrestris. The test is described as follows: Toxicity against worker Bombus terrestris (bumblebee) assessed as mortality at 150 mg a.i./l, po administered through pollen for 11 weeks measured everyday for 3 days followed by once a week for 11 weeks. Type of test: functional, organism-based.
The test system of test [20] is Bombus terrestris. The test is described as follows: Contact toxicity against worker Bombus terrestris (bumblebee) assessed as mortality at 150 mg a.i./l applied on the dorsal thorax for 11 weeks measured everyday for 3 days followed by once a week for 11 weeks. The test is classed as functional.
The subject of test [21] is Bombus terrestris. The experiment in a line: Toxicity against worker Bombus terrestris (bumblebee) assessed as reduction in reproduction at 150 mg a.i./l, po administered through pollen for 11 weeks measured once a week for 11 weeks. The test is classed as functional. Further details: scale not given: the % may be the effect or the level left.
Test [22] concerns Bombus terrestris. The test is described as follows: Toxicity against worker Bombus terrestris (bumblebee) assessed as reduction in reproduction at 150 mg a.i./l, po administered through sugar water for 11 weeks measured once a week for 11 weeks relative to control. Type of test: functional, organism-based.
Test [23] deals with Bombus terrestris. The test is described as follows: Contact toxicity against worker Bombus terrestris (bumblebee) assessed as reduction in reproduction at 150 mg a.i./l applied on the dorsal thorax for 11 weeks measured once a week for 11 weeks relative to control. Type of test: functional, organism-based.
Test [24] deals with Bombus terrestris. The experiment in a line: Toxicity against worker Bombus terrestris (bumblebee) assessed as reduction in reproduction at 96 mg a.i./l, po administered through pollen for 11 weeks measured once a week for 11 weeks. The test is classed as functional, organism-based.
Test [25] deals with Bombus terrestris. The experiment in a line: Toxicity against worker Bombus terrestris (bumblebee) assessed as mortality at 200 mg a.i./l, po administered through pollen for 11 weeks measured everyday for 3 days followed by once a week for 11 weeks. The test is classed as functional.
Test [26] relates to Bombus terrestris. The test is described as follows: Contact toxicity against worker Bombus terrestris (bumblebee) assessed as mortality at 200 mg a.i./l applied on the dorsal thorax for 11 weeks measured everyday for 3 days followed by once a week for 11 weeks. The test is classed as functional.
Test [27] has as its system Bombus terrestris. The test is described as follows: Toxicity against worker Bombus terrestris (bumblebee) assessed as mortality at 200 mg a.i./l, po administered through sugar water for 11 weeks measured everyday for 3 days followed by once a week for 11 weeks. The test is classed as functional.
Test [28] concerns Bombus terrestris. The experiment in a line: Toxicity against worker Bombus terrestris (bumblebee) assessed as reduction in reproduction at 200 mg a.i./l, po administered through pollen for 11 weeks measured once a week for 11 weeks. Type of test: functional. More on the design: scale not given: the % may be the effect or the level left.
The test system of test [29] is Bombus terrestris. The test is described as follows: Contact toxicity against worker Bombus terrestris (bumblebee) assessed as reduction in reproduction at 200 mg a.i./l applied on the dorsal thorax for 11 weeks measured once a week for 11 weeks relative to control. Type of test: functional, organism-based.
Test [30] concerns Bombus terrestris. The experiment in a line: Toxicity against worker Bombus terrestris (bumblebee) assessed as mortality at 10 mg a.i./l, po administered through sugar water for 11 weeks measured everyday for 3 days followed by once a week for 11 weeks. Type of test: functional.
Test [31] deals with Bombus terrestris. The test is described as follows: Toxicity against worker Bombus terrestris (bumblebee) assessed as mortality at 10 mg a.i./l, po administered through pollen for 11 weeks measured everyday for 3 days followed by once a week for 11 weeks. The test is classed as functional, organism-based.
In test [32] the test system is Bombus terrestris. The test is described as follows: Contact toxicity against worker Bombus terrestris (bumblebee) assessed as mortality at 10 mg a.i./l applied on the dorsal thorax for 11 weeks measured everyday for 3 days followed by once a week for 11 weeks. The test is classed as functional.
Test [33] deals with Bombus terrestris. The experiment in a line: Contact toxicity against worker Bombus terrestris (bumblebee) assessed as reduction in reproduction at 10 mg a.i./l applied on the dorsal thorax for 11 weeks measured once a week for 11 weeks relative to control. The test is classed as functional, organism-based.

In the case of `CC(C)OC(=O)C(O)(c1ccc(Br)cc1)c1ccc(Br)cc1` [BROMOPROPYLATE], the mortality at 500 µg/mL in test [1] and in test [3] was below 25% in each case. The result in test [2] and in [4] was inactive. The Activity in test [5] amounted to 50%. The result in [6] was Active.
`COc1ccc(-c2ccccc2)cc1NNC(=O)OC(C)C` [BIFENAZATE]: the mortality at 96 µg/mL is below 25% in [7] and 95% in test [9]. Also, the outcome in test [8], in test [14] and in [17] was Active. For the same compound, the LC50 in test [10] worked out at 9.6 mgAi/L. Further, in [10], the NOAEL is reported as 0.096 mgAi/L. Also, the LD50 was above 100 µg in test [11], 8.5 µg in test [12] and below 1 µg in test [13]. The result in [15] and in [16] was inactive.
On to `CCCCCCCCCCCCC1=C(OC(C)=O)C(=O)c2ccccc2C1=O` [ACEQUINOCYL], for which the mortality at 150 µg/mL in [18] and in [20] was below 25% in each case. The result in test [19] was inactive. For the same compound, the Activity in [21] worked out at 50%. Moreover, the outcome in [22] and in test [23] was Active.
Regarding `Clc1ccccc1-c1nnc(-c2ccccc2Cl)nn1` [CLOFENTEZINE], the results for the mortality at 150 µg/mL in test [18] and in test [20] were 50% and below 25%, respectively. In addition, in test [19], the outcome was inactive. The Activity in test [21] turned out to be 50%. Also, in [23], the result was Active.
For `CCC(C)(C)C(=O)OC1=C(c2ccc(Cl)cc2Cl)C(=O)OC12CCCCC2` [SPIRODICLOFEN], the mortality at 96 µg/mL in [7] and in [9] was below 25% throughout. The outcome in test [24] and in [17] was Active. Besides, the result in test [15] and in test [16] was inactive.
For the compound `CC(C)(C)c1ccc(CCOc2ncnc3ccccc23)cc1` [FENAZAQUIN], the mortality at 200 µg/mL was 90% in [25], below 25% in test [26] and 25% in test [27]. Also, the LD50 in test [11] is above 100 µg; in [13], below 1 µg. Moreover, the Activity in test [28] is 50%. For the same compound, the result in [29] was inactive.
Turning to `C/C1=C\C[C@@H]2C[C@@H](C[C@]3(CC[C@H](C)[C@@H](C)O3)O2)OC(=O)[C@@H]2CC[C@@H](O)[C@H]3OC/C(=C\C=C\[C@H](C)C1)[C@]32O` [MILBEMECTIN], the mortality at 10 µg/mL in test [30] and in [32] was below 25% in each case. Besides, the result in [31] and in test [33] was inactive. The LD50 in test [11] is above 100 µg; in [13], below 1 µg.
`ClC1=C(Cl)C(Cl)(C2(Cl)C(Cl)=C(Cl)C(Cl)=C2Cl)C(Cl)=C1Cl` [DIENOCHLOR]: the mortality at 500 µg/mL is 85% in test [1] and below 25% in test [3]. The result in test [2] and in [4] was inactive. In addition, the Activity in test [5] came to 50%. The result in test [6] was Active.
